# From US9725449B2, “Tricyclic compounds as anticancer agents” (BRISTOL-MYERS SQUIBB COMPANY, priority 2015, dated 2017)
# Molecular target: BRD4 (Homo sapiens, UniProt O60885)
# Assay: Time resolved fluorescence resonance energy transfer (TR-FRET) binding assay, bromodomain BRD4
# Conditions: one of the FRET assays described; read-out: FRET BRD4 IC50
row,SMILES,IC50
1,"[2H]C([2H])([2H])c1nnn(C)c1-c1cnc2c3c(OCC4CCCO4)ncc(S(C)(=O)=O)c3n([C@H](c3ccccc3)C3CCOCC3)c2c1 (stereo partly drawn) [Example 110, 10-Methanesulfonyl-5-[4-(^2H3)methyl-1-methyl-1H-1,2,3-triazol-5-yl]-8-[(S)-oxan-4-yl(phenyl)methyl]-13-[(2S)-oxolan-2-ylmethoxy]-3,8,12-triazatricyclo[7.4.0.0^2,^7]trideca-1(13),2(7),3,5,9,11-hexaene]",< 10 nM
2,"[2H]C([2H])([2H])c1nnn(C)c1-c1cnc2c3c(OC4COC4)ncc(S(C)(=O)=O)c3n([C@H](c3ccccc3)C3CCOCC3)c2c1 [Example 111, 10-Methanesulfonyl-5-[4-(^2H3)methyl-1-methyl-1H-1,2,3-triazol-5-yl]-8-[(S)-oxan-4-yl(phenyl)methyl]-13-(oxetan-3-yloxy)-3,8,12-triazatricyclo[7.4.0.0^2,^7]trideca-1(13),2(7),3,5,9,11-hexaene]",< 10 nM
3,"[2H]C([2H])([2H])c1nnn(C)c1-c1cnc2c3c(OCC(F)F)ncc(S(C)(=O)=O)c3n([C@H](c3ccccc3)C3CCOCC3)c2c1 [Example 112, 13-(2,2-Difluoroethoxy)-10-methanesulfonyl-5-[4-(^2H3)methyl-1-methyl-1H-1,2,3-triazol-5-yl]-8-[(S)-oxan-4-yl(phenyl)methyl]-3,8,12-triazatricyclo[7.4.0.0^2,^7]trideca-1(13),2(7),3,5,9,11-hexaene]",< 1 nM
4,"[2H]C([2H])([2H])c1nnn(C)c1-c1cnc2c3c(N[C@@H](C)C4CC4)ncc(S(C)(=O)=O)c3n([C@H](c3ccccc3)C3CCOCC3)c2c1 [Example 113, N-[(1S)-1-Cyclopropylethyl]-10-methanesulfonyl-5-[4-(^2H3)methyl-1-methyl-1H-1,2,3-triazol-5-yl]-8-[(S)-oxan-4-yl(phenyl)methyl]-3,8,12-triazatricyclo[7.4.0.0^2,^7]trideca-1(13),2(7),3,5,9,11-hexaen-13-amine]",< 1 nM
5,"[2H]C([2H])([2H])c1nnn(C)c1-c1cnc2c3c(N[C@H](C)C4CC4)ncc(S(C)(=O)=O)c3n([C@H](c3ccccc3)C3CCOCC3)c2c1 [Example 114, N-[(1R)-1-Cyclopropylethyl]-10-methanesulfonyl-5-[4-(^2H3)methyl-1-methyl-1H-1,2,3-triazol-5-yl]-8-[(S)-oxan-4-yl(phenyl)methyl]-3,8,12-triazatricyclo[7.4.0.0^2,^7]trideca-1(13),2(7),3,5,9,11-hexaen-13-amine]",< 10 nM
6,"[2H]C([2H])([2H])c1nnn(C)c1-c1cnc2c3c(N(C)CC)ncc(S(C)(=O)=O)c3n([C@H](c3ccccc3)C3CCOCC3)c2c1 [Example 115, N-Ethyl-10-methanesulfonyl-N-methyl-5-[4-(^2H3)methyl-1-methyl-1H-1,2,3-triazol-5-yl]-8-[(S)-oxan-4-yl(phenyl)methyl]-3,8,12-triazatricyclo[7.4.0.0^2,^7]trideca-1(13),2(7),3,5,9,11-hexaen-13-amine]",< 1 nM
7,"[2H]C([2H])([2H])c1nnn(C)c1-c1cnc2c3c(N(C)C(C)C)ncc(S(C)(=O)=O)c3n([C@H](c3ccccc3)C3CCOCC3)c2c1 [Example 116, 10-Methanesulfonyl-N-methyl-5-[4-(^2H3)methyl-1-methyl-1H-1,2,3-triazol-5-yl]-8-[(S)-oxan-4-yl(phenyl)methyl]-N-(propan-2-yl)-3,8,12-triazatricyclo[7.4.0.0^2,^7]trideca-1(13),2(7),3,5,9,11-hexaen-13-amine]",< 1 nM
8,"[2H]C([2H])([2H])c1nnn(C)c1-c1cnc2c3c(NCC(F)F)ncc(S(C)(=O)=O)c3n([C@H](c3ccccc3)C3CCOCC3)c2c1 [Example 117, N-(2,2-Difluoroethyl)-10-methanesulfonyl-5-[4-(^2H3)methyl-1-methyl-1H-1,2,3-triazol-5-yl]-8-[(S)-oxan-4-yl(phenyl)methyl]-3,8,12-triazatricyclo[7.4.0.0^2,^7]trideca-1(13),2(7),3,5,9,11-hexaen-13-amine]",< 10 nM
9,"[2H]C([2H])([2H])c1nnn(C)c1-c1cnc2c3c(OC)nccc3n([C@H](c3ccccc3)C3CCOCC3)c2c1 [Example 128, 13-Methoxy-5-[4-(^2H3)methyl-1-methyl-1H-1,2,3-triazol-5-yl]-8-[(S)-oxan-4-yl(phenyl)methyl]-3,8,12-triazatricyclo[7.4.0.0^2,^7]trideca-1(13),2(7),3,5,9,11-hexaene]",< 10 nM
10,"[2H]C([2H])([2H])c1nnn(C)c1-c1cnc2c3c(OCC)nccc3n([C@H](c3ccccc3)C3CCOCC3)c2c1 [Example 129, 13-Ethoxy-5-[4-(^2H3)methyl-1-methyl-1H-1,2,3-triazol-5-yl]-8-[(S)-oxan-4-yl(phenyl)methyl]-3,8,12-triazatricyclo[7.4.0.0^2,^7]trideca-1(13),2(7),3,5,9,11-hexaene]",< 1 nM
11,"[2H]C([2H])([2H])c1nnn(C)c1-c1cnc2c3c(OCC4CC4)nccc3n([C@H](c3ccccc3)C3CCOCC3)c2c1 [Example 130, 13-(Cyclopropylmethoxy)-5-[4-(^2H3)methyl-1-methyl-1H-1,2,3-triazol-5-yl]-8-[(S)-oxan-4-yl(phenyl)methyl]-3,8,12-triazatricyclo[7.4.0.0^2,^7]trideca-1(13),2(7),3,5,9,11-hexaene]",< 1 nM
12,"[2H]C([2H])([2H])c1nnn(C)c1-c1cnc2c3c(OC(C)C)nccc3n([C@H](c3ccccc3)C3CCOCC3)c2c1 [Example 131, 5-[4-(^2H3)Methyl-1-methyl-1H-1,2,3-triazol-5-yl]-8-[(S)-oxan-4-yl(phenyl)methyl]-13-(propan-2-yloxy)-3,8,12-triazatricyclo[7.4.0.0^2,^7]trideca-1(13),2(7),3,5,9,11-hexaene]",< 10 nM
13,"[2H]C([2H])([2H])c1nnn(C)c1-c1cnc2c3c(N(C)CC)nccc3n([C@H](c3ccccc3)C3CCOCC3)c2c1 [Example 132, N-Ethyl-N-methyl-5-[4-(^2H3)methyl-1-methyl-1H-1,2,3-triazol-5-yl]-8-[(S)-oxan-4-yl(phenyl)methyl]-3,8,12-triazatricyclo[7.4.0.0^2,^7]trideca-1(13),2(7),3,5,9,11-hexaen-13-amine]",< 1 nM
14,"[2H]C([2H])([2H])c1nnn(C)c1-c1cnc2c3c(NCC(F)F)nccc3n([C@H](c3ccccc3)C3CCOCC3)c2c1 [Example 133, N-(2,2-Difluoroethyl)-5-[4-(^2H3)methyl-1-methyl-1H-1,2,3-triazol-5-yl]-8-[(S)-oxan-4-yl(phenyl)methyl]-3,8,12-triazatricyclo[7.4.0.0^2,^7]trideca-1(13),2(7),3,5,9,11-hexaen-13-amine]",< 1 nM
15,"[2H]C([2H])([2H])c1nnn(C)c1-c1cnc2c3c(NCC(F)(F)F)nccc3n([C@H](c3ccccc3)C3CCOCC3)c2c1 [Example 134, 5-[4-(^2H3)Methyl-1-methyl-1H-1,2,3-triazol-5-yl]-8-[(S)-oxan-4-yl(phenyl)methyl]-N-(2,2,2-trifluoroethyl)-3,8,12-triazatricyclo[7.4.0.0^2,^7]trideca-1(13),2(7),3,5,9,11-hexaen-13-amine]",< 1 nM
16,"COC(=O)c1cnc(OC)c2c3ncc(-c4c(C)nnn4C)cc3n([C@H](c3ccccc3)C3CCOCC3)c12 [Example 135, Methyl 5-(dimethyl-1H-1,2,3-triazol-5-yl)-13-methoxy-8-[(S)-oxan-4-yl(phenyl)methyl]-3,8,12-triazatricyclo[7.4.0.0^2,^7]trideca-1(9),2,4,6,10,12-hexaene-10-carboxylate]",< 1 nM
